Where two headings read alike, the source gives them in different places.

These results are taken from patent publication US20140349862A1, “METHODS AND COMPOSITIONS FOR THERAPEUTIC DRUG MONITORING AND DOSING BY POINT OF CARE PHARMACOKINETIC PROFILING” (priority 2011, published 2014).

The nature of one data set: clinical. As to conditions: human, in vivo. From the text:
To determine whether Abraxane PK has enough variability to benefit from therapeutic drug monitoring, we performed a PK analysis using all published literature on Abraxane PK. […] J Clin Oncol. 23:7785-93.). […] It is expected that Genexol-PM and Nanoxel would have the same PK variations. The wide variability of Abraxane was rather surprising. The role of therapeutic drug monitoring is to reduce this variability. Though PK profiles for Abraxane and Taxol were similar, there are differences. These differences, however, are small and could be masked by the large variation in PK of Abraxane/Taxol.
To determine whether medication used in assisted reproduction, i.e. FSH (follicle stimulating hormone), we performed a PK analysis using published literature on FSH PK. […] To compare it to 5-FU data, we used variability as SD/Mean.

Data set [1] deals with patients with metastatic colorectal cancer. The note with it: cited from earlier work.
[2] abbreviates: initial BSA dose, blood plasma concentration measured.

The term AUC denotes the area under the concentration-time curve, a measure of exposure. A higher AUC goes with high exposure. On to `O=c1[nH]cc(F)c(=O)[nH]1` [5-FU, 5-fluorouracil], for which the “AUC variability (range as % of the mean)” value in “clinical” is 138%. The “AUC variability as SD/Mean” value in “clinical” was determined as 34.42%. Moreover, the AUC in “clinical” (mean) is 9050 ng·h/mL; in the data set “clinical” (range), 3900 to 16400 ng·h/mL. The Median survival was 16 months in data set [1] (BSA arm) and 22 months in data set [1] (personalized 5-FU dose management). Further, the Response rate in data set [1] (BSA group (dosing by body surface area)) is recorded as 18.3%; in data set [1] (dose-adjusted group (PK-guided dosing)) it was 33.6%. Also, the “Patients found to be over-dosed (doses adjusted downward)” value in data set [1] (setting [2]) is recorded as “Seventeen”. Besides, in data set [1] (setting [2]), the “Patients found to be under-dosed (doses adjusted upwards)” value is listed as “Fifty eight”. In addition, in data set [1] (personalized 5-FU dose management versus BSA arm), the “Improvement of overall survival at two years” value is given as 48%. The “Grade III/IV 5-FU related toxicities” value in data set [1] (personalized dose adjustment versus BSA dosing) is “significantly lower”.
